Test results published in US8916540B2, “Antibiotic compositions and related screening methods” (Academia Sinica, priority 2008, dated 2014).
Values after ≈ are worked out from the molar mass of the structure shown. Where two headings read alike, the source gives them in different places.

Key:
Staphylococcus aureus = test: Minimal inhibitory concentration (MIC) determination; assay type: cell-based; details: Staphylococcus aureus
Experimental: (§1) The minimal inhibitory concentration (MIC) of tested compounds was determined following the NCCLS standard. The experiments were conducted in 96-well microtiter plates using two-fold dilutions in Muller-Hilton broth with (Streptococcus pneumonia) or without blood (Bacillus subtilis, Enterococcus faecalis, Staphylococcus aureus). Exponentially growing cells at 5×10^5 cells/ml were incubated with test compounds at various concentrations.

Bacillus subtilis = test: as above; assay type: cell-based; details: Bacillus subtilis
Experimental: as §1

Enterococcus faecalis = test: as above; assay type: cell-based; details: Enterococcus faecalis
Experimental: as §1

Streptococcus pneumoniae = test: as above; assay type: cell-based; details: Streptococcus pneumoniae
Experimental: as §1

H. pylori PBP1a = target: T1, H. pylori PBP1a (Helicobacter pylori, UniProt O25319, /I22V/I24V/I79V/M17V/S417T/V16I, form not given); assay type: binding; details: read-out: IC50 (fluorescence anisotropy assay, displacement of F-Moe); 100 nM F-Moe, 10 μg/ml H. pylori PBP1a, 10 mM Tris pH 8.0, 100 mM NaCl
T1 sequence (O25319 1-659 V16I/M17V/I22V/I24V/G44S/I79V/I101V/F125L/G242S/E323D/D336E/E406V/S417T/D508E): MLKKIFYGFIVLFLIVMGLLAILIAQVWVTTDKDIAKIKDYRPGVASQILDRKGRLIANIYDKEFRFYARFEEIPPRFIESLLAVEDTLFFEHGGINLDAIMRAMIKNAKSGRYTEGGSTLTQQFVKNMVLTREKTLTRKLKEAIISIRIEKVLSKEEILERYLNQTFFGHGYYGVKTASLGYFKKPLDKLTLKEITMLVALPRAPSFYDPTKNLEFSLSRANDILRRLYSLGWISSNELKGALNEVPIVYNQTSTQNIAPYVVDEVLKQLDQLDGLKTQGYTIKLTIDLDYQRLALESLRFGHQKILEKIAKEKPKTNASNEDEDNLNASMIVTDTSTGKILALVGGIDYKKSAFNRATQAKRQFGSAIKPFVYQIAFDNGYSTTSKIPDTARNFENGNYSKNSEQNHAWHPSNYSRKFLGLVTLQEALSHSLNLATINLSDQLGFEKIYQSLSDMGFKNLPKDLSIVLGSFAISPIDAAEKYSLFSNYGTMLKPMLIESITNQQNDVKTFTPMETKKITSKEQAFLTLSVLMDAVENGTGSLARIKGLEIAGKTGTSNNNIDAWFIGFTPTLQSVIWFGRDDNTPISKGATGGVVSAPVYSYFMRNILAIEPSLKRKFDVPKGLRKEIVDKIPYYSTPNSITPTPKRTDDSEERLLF
Experimental: Fluorescence anisotropy measurements were carried out in triplicates in the wells of 384-well plates using a laser fluorimetry equipped with a 488 nm laser (IsoCyte, Blueshift Biotech, Inc., Sunnyvale, Calif., USA). Various buffers, salts, pH values, and divalent cations (Ca^++, Mg^++, Co^++) were optimized for fluorescence anisotropy measurements. […] The scanning focus was above the plate bottom to avoid detection interferences. Data analysis was performed with the proprietary software, BlueImage (Blueshift Biotech Inc). Fluorescence anisotropy values (A) were calculated using the equation: A=(/∥−G*/⊥)/(/∥+2G*/⊥), where /∥ is the fluorescence intensity of emitted light parallel to excitation, /⊥ is the fluorescence intensity of emitted light perpendicular to excitation, and G is the […] that corrects for instrument bias. The G factor is experimentally determined for each run using the probe-only well as the basal an isotropy.
For the development of an assay for inhibitor screening, F-Moe was pre-incubated with H. pylori PBP1a and then competed with unlabeled Moe A at various concentrations.
For displacement assay, the initial condition contained 40 μl of 100 nM F-Moe, 10 μg/ml H. pylori PBP1a in 10 mM Tris, pH 8.0, 100 mM NaCl. Aliquots of compound stock solution were added and the anisotropy was monitored after 5 minutes of equilibration. The data from the displacement assay was used to calculate the inhibition constant (KI) and IC50 value of an inhibitor using the complete competitive binding model
[formula] The KI value was determined by plotting the total inhibitor concentration (C) versus the molar ratio of bound/free F-Moe and fitting the resulting curve to [Eq. 2], C=[(KI/KD*X)+1][RT−(LST*X)/(X+1)−KD*X [Eq. 2] […] The reported value is the average of four different runs.
For IC50 determination, the fraction of bound fluorescent probe is plotted versus the log value of the competitor concentration (C).

[1] = S. aureus ATCC29213, Muller-Hilton broth, 18 h to 24 h, 37° C., read-out: MIC S. aureus (ATCC29213)
[2] = B. subtilis ATCC23857, Muller-Hilton broth, 18 h to 24 h, 37° C., read-out: MIC B. subtilis (ATCC23857)
[3] = E. faecalis ATCC29212, Muller-Hilton broth, 18 h to 24 h, 37° C., read-out: MIC E. faecalis (ATCC29212)
[4] = S. pneumoniae ATCC49619, Muller-Hilton broth with blood, 18 h to 24 h, 37° C., read-out: MIC S. pneumoniae (ATCC49619)

SMILES	MIC (Staphylococcus aureus; [1])	MIC (Bacillus subtilis; [2])	MIC (Enterococcus faecalis; [3])	MIC (Streptococcus pneumoniae; [4])	IC50 (H. pylori PBP1a)	MIC (Staphylococcus aureus; ATCC29213, read-out: MIC S. aureus (ATCC29213))	MIC (Bacillus subtilis; ATCC23857, read-out: MIC B. subtilis (ATCC23857))	MIC (Enterococcus faecalis; ATCC29212, read-out: MIC E. faecalis (ATCC29212))	MIC (Streptococcus pneumoniae; ATCC49619, read-out: MIC S. pneumoniae (ATCC49619))
C=C(CC=C(C)CCC=C(C)C)CCC(C)(C)C=CCCC(C)=CCOC(COP(=O)(O)OC1OC(C(N)=O)C(C)(O)C(OC(N)=O)C1OC1OC(COC2OC(CO)C(O)C(O)C2O)C(OC2OC(C)C(OC3OC(c4nc(C(=O)CCC(=O)O)nn4-c4ccc([N+](=O)[O-])c(C(=O)NCCN)c4)C(O)C(O)C3O)C(O)C2NC(C)=O)C(O)C1NC(C)=O)C(=O)O (stereo not drawn) [Compound 2]	1.25 µM (≈ 2.27 µg/mL)	2.5 µM (≈ 4.54 µg/mL)	10 µM (≈ 18.2 µg/mL)	20 µM (≈ 36.4 µg/mL)	2.1 µM				
C=C(CC=C(C)CCC=C(C)C)CCC(C)(C)C=CCCC(C)=CCOC(COP(=O)(O)OC1OC(C(N)=O)C(C)(O)C(OC(N)=O)C1OC1OC(COC2OC(CO)C(O)C(O)C2O)C(OC2OC(C)C(OC3OC(c4nc(C(=O)CCC(=O)O)nn4-c4ccc([N+](=O)[O-])c(C(=O)NCCNC(=O)CCCCCCC(=O)NCCNC(=O)c5cc(-n6nc(C(=O)CCC(=O)O)nc6C6OC(OC7C(C)OC(OC8C(COC9OC(CO)C(O)C(O)C9O)OC(OC9C(OP(=O)(O)OCC(OCC=C(C)CCC=CC(C)(C)CCC(=C)CC=C(C)CCC=C(C)C)C(=O)O)OC(C(N)=O)C(C)(O)C9OC(N)=O)C(NC(C)=O)C8O)C(NC(C)=O)C7O)C(O)C(O)C6O)ccc5[N+](=O)[O-])c4)C(O)C(O)C3O)C(O)C2NC(C)=O)C(O)C1NC(C)=O)C(=O)O (stereo not drawn) [Compound 4]					0.92 µM	0.625 µM (≈ 2.36 µg/mL)	1.25 µM (≈ 4.72 µg/mL)	5 µM (≈ 18.9 µg/mL)	20 µM (≈ 75.5 µg/mL)
O=C1OC(c2ccc(Br)cc2)=C/C1=C/c1ccc([N+](=O)[O-])o1 [Compound 6, (Z)-5-(4-bromophenyl)-3-((5-nitrofuran-2-yl)methylene)furan-2(3H)-one]	1 µM (≈ 0.362 µg/mL)	0.25 µM (≈ 0.0905 µg/mL)	0.25 µM (≈ 0.0905 µg/mL)	4 µM (≈ 1.45 µg/mL)	34 µM				
O=C1/C(=N\Nc2nccs2)C(c2ccccc2)=NN1c1ccccc1 [Compound 7]	4 µM (≈ 1.39 µg/mL)	0.25 µM (≈ 0.0869 µg/mL)	1 µM (≈ 0.347 µg/mL)		3.7 µM				
C/C(=C\c1ccc(C(=O)O)cc1)c1ccc2c(c1)C(C)(C)CCC2(C)C [Compound 8, (E)-4-(2-(5,5,8,8,-tetramethyl-5,6,7,8-tetrahydronaphthalen-2-yl)prop-1-enyl)benzoic acid]	> 4 µM	4 µM (≈ 1.39 µg/mL)	> 4 µM	> 4 µM	9.3 µM				
